From patent US11491132B2, “Methods for treating thrombocytopenia” (Enzychem Lifesciences Corporation, priority 2014, dated 2022)

Test system: platelets
Test: Lipopolysaccharide-induced platelet reduction in mice
Type: in vivo
Settings: LPS 1 mg/kg, PLAG 1 mg/kg, 15 hours after PLAG treatment
Description: Mice are injected with 100 mg/kg phenylhydrazine (PHZ), i.p., to induce anemia and reduction of platelets. 5 mg/kg PLAG is administered to the mice orally and blood samples are taken at 3 and 13 days after. In addition, for comparison, normal mice which are not treated with phenylhydrazine are prepared as a normal group, and mice treated with PHZ and olive oil instead of PLAG are prepared as a control group. The blood samples taken from the mice are treated with 0.5 ml EDTA (Minicollect tube, Greiner bio-one, Austria) and concentration of platelet is measured using automated blood sample analyzer BC-6800 (Mindray, Shenzhen, China) by number of platelet per […] (k: 1,000).
The experiment is repeated using Tamoxifen (Tam), an anticancer agent, injected at the amount of 100 mg/kg, or lipopolysaccharide (LPS), an inflammation inducer, at the amount of 1 mg/kg to induce platelet reduction. Platelet concentration is measured 15 hours after PLAG treatment. For comparison, olive oil and PBS are used instead of PLAG as controls, respectively for the Tamoxifen and lipopolysaccharide experiment.

## CCCCC/C=C\C/C=C\CCCCCCCC(=O)OC(COC(C)=O)COC(=O)CCCCCCCCCCCCCCC (racemic) [PLAG, 1-palmitoyl-2-linoleoyl-3-acetylglycerol]
  Platelet Conc.: 450.00 k/ul
